Key:
[1] = D-tagatose fully dissolved in water:organic dual solvent systems; type: physicochemical
Excerpt: The solvent used in the spray-drying feed formulation may be substantially any solvent suitable for the intended purpose including, for example, an appropriate co-solvent system. That co-solvent system may include acetone and water. The acetone and water may be provided at a ratio of between 1:1 and 4.6:1 (v/v %). In other embodiments, the co-solvent system may include methanol and water, propanol and water or ethanol and water.

[2] = D-tagatose dissolved in tri-solvent systems; type: physicochemical
Excerpt: Tri-solvent systems may also be used. One example of a tri-solvent system is ethanol, methanol and water.
Table 2: Summarizes tri-solvent systems that have shown to dissolve D-tagatose.

[3] = Glass transition temperature (Tg) by DSC; type: physicochemical
Description: Glass transition temperatures were determined using DSC for physical mixtures of D-tagatose and respective excipients subjected to melt quenching. Samples were prepared by geometrically mixing D-tagatose and excipients at a 1:1 (w/w) ratio. Once mixed, the samples were then rigorously ground using a mortar and pestle before being hermetically sealed within a T-Zero pan. Once sealed, the samples were transferred to a Q2000 DSC (TA Instruments, New Castle, DE). All samples were run with the DSC operating in the modulation mode with a “pinhole” lid to better capture the sample's behavior instead of any residual vapors. The modulating method was first equilibrated at −20° C. before heating at 10° C./min to 140° C. […] Once −10° C. was reached, samples were set to modulate at ±0.5° C. every 60 s immediately and held for 5 min before ramping 1° C./min back to 140° C. Reported Tg values were averages of triplicate samples, each determined from the midpoint of the glass transition step change from the resultant reversible heat flow curves vs. temperature thermograms. All DSC mass samples were between 1 and 5 mg.

[4] = crystalline D-tagatose, at 20° C.; cited from earlier work
[5] = oral ingestion; cited from earlier work
[6] = tested on: type 2 diabetes; details: cited from earlier work
[7] = granted 2004; such low toxicity that no daily intake monitoring is needed; cited from earlier work

O=C(CO)[C@@H](O)[C@@H](O)[C@H](O)CO [D-tagatose, D-(−)-tagatose]
amount of D-tagatose dissolved ([1]; 2-Propanol:Water 5 mL:3.6 mL): ~1 gram | w % Tagatose (fully dissolved) ([1]; 2-Propanol:water, 45.6 w % water, 43.3 w % organic): 11.1 w % | amount of D-tagatose dissolved ([1]; Acetone:Water 5 mL:4.1 mL): ~1 gram | w % Tagatose (fully dissolved) ([1]; Acetone:water, 46.0 w % water, 42.7 w % organic): 11.3 w % | amount of D-tagatose dissolved ([1]; Ethanol:Water 5 mL:4.2 mL): ~1 gram | w % Tagatose (fully dissolved) ([1]; Ethanol:water, 45.9 w % water, 42.5 w % organic): 11.6 w % | amount of D-tagatose dissolved ([1]; Methanol:Water 5 mL:3.1 mL): ~1 gram | w % Tagatose (fully dissolved) ([1]; Methanol:water, 46.0 w % water, 42.7 w % organic): 11.2 w % | amount of D-tagatose dissolved ([2]; 2-Propanol:Acetone:Water 1 mL:5 mL:3.8 mL, sonicate while adding water): ~1 gram | amount of D-tagatose dissolved ([2]; 2-Propanol:Acetone:Water 5 mL:1 mL:3.6 mL, sonicate while adding water): ~1 gram | amount of D-tagatose dissolved ([2]; 2-Propanol:Ethanol:Water 1 mL:5 mL:4.2 mL, sonicate while adding water): ~1 gram | amount of D-tagatose dissolved ([2]; 2-Propanol:Ethanol:Water 5 mL:1 mL:4.6 mL, sonicate while adding water): ~1 gram | w % Tagatose (dissolved) ([2]; Ethanol 1 mL + 5 mL methanol + water, 37.324 w % water, 51.789 w % organic): 10.887 w % | w % Tagatose (dissolved) ([2]; Ethanol 2 mL + 5 mL methanol + water, 36.185 w % water, 53.816 w % organic): 9.999 w % | w % Tagatose (dissolved) ([2]; Ethanol 3 mL + 5 mL methanol + water, 32.436 w % water, 58.272 w % organic): 9.292 w % | w % Tagatose (dissolved) ([2]; Methanol 1 mL + 5 mL ethanol + water, 39.808 w % water, 49.3620231 w % organic): 10.830 w % | w % Tagatose (dissolved) ([2]; Methanol 2 mL + 5 mL ethanol + water, 37.459 w % water, 52.8123019 w % organic): 9.729 w % | w % Tagatose (dissolved) ([2]; Methanol 3 mL + 5 mL ethanol + water, 35.506 w % water, 55.7893055 w % organic): 8.704 w % | amount of D-tagatose dissolved ([2]; Methanol:Ethanol:Water 5 mL:1 mL:3.4 mL): ~1 gram | dry Tg (glass transition temperature) [3]: 18.92 °C | aqueous solubility [4]: 160 g/100 mL | fraction of orally ingested dose fully metabolized [5]: 20% | effect on HbA1c [6]: lower | effect on LDL [6]: lower | effect on fasting blood glucose levels [6]: lower | effect on total cholesterol [6]: lower | safe daily intake [7]: not specified

Source: patent US11795189B2, “Formulation and method for spray-drying D-tagatose” (University of Kentucky Research Foundation, priority 2020, dated 2023)
